# Assay results taken from patent US11731977B2, “SGC stimulators” (Cyclerion Therapeutics, Inc., priority 2016, dated 2023).
# Like-named read-outs stand apart in the source and are kept apart here.
# Columns and labels:
# [1] = Rat cerebrospinal fluid (CSF) pharmacokinetic properties (Example 4); format: in vivo; settings: male, Sprague-Dawley
# Protocol: Protocol PK in rats was determined following oral dosing. For the oral (PO) experiments, a group of 6 male Sprague-Dawley rats with an indwelling catheter placed in the cistema magna were used. The PO group was dosed with 10 mg/kg or 1 mg/kg of a compound formulated as a solution in PEG400. PO doses were administered by oral gavage and delivered to the stomach using a syringe and gavage tube. Following oral dosage administration, the gavage tube was flushed with approximately 0.5 mL of water to ensure complete delivery of the full dose.
# Plasma samples were collected as follows: samples of CSF and blood were collected at 1 hour, 2, and optionally at 4 hours post-dosing. CSF samples (0.05 mL) were collected through the intracisternal catheter. Blood samples (0.25 mL) were collected through retro-orbital sampling. These samples were kept on ice until processed for plasma. Blood samples were centrifuged at 3200 rpm for 5 minutes at approximately 5° C. within 1 hour of collection. Plasma was directly transferred to a 96-well plate tube (0.125 mL). Plug caps were placed on the tubes and the tubes frozen at approximately −70° C. and stored until analysis. Plasma was collected and analyzed for the presence of a compound.
# Quantitation of Compounds. The compound in question and the internal standard were extracted from plasma and CSF by precipitation. Samples were analyzed using liquid chromatography (LC) with tandem mass spectrometric detection (MS/MS) using electrospray ionization. The standard curve range was from 1 to 1000 ng/mL. Results of the compounds described herein in this assay are illustrated in Table 4a below (10 mg/kg dose) and Tables 4b and 4c below (1 mg/kg).
# Kp,uu is defined as the concentration ratio of unbound drug in CSF to unbound drug in plasma. Unbound drug in plasma (or free plasma concentration) is calculated by multiplying the total plasma concentration by the unbound fraction as determined by plasma protein binding. The CSF concentration is then divided by the free plasma concentration to determine the Kp,uu. (See e.g., Di et al., J. Med. Chem., 56, 2-12 (2013))
# [2] = test system: cGMP in rat primary neurons; assay: cGMP neuronal cell-based assay (Example 3); settings: Primary neuron; rat primary hippocampal neurons; 30 μM DETA-NO; cGMP by LC-MS/MS; 50% of high control (10 μM Compound Y); read-out: Abs EC50
# Protocol: Rat primary neurons were isolated from fetuses of 18-day pregnant Sprague-Dawley females. The fetuses were collected in Hanks' balanced salt solution (HBSS) and brains were rapidly removed. The cerebral hippocampi were isolated and mechanically fragmented. Further tissue digestion was performed with 0.25% (wt/vol) trypsin solution in HBSS without Ca2+ and Mg2+ for 15 min at 37° C. After trypsination, cells were washed and resuspended in neurobasal medium supplemented with 0.5 mM L-glutamine, 12.5 uM glutamic acid, 2% B-27 and 100 U/mL penicillin, and 100 μg/mL streptomycin. Cells were plated at a density of 4×10^4 cells/well in a poly-D-lysine coated 384-well flat clear-bottom plate (Corning Cat No 354662). Cells were incubated 6-7 days at 37° C. in a humidified chamber with 5% CO2. Media was removed and cells were washed 1× with HBSS containing Ca2+ and Mg2+, and replaced with 40 uL HBSS containing 0.5 mM IBMX, and incubated for 15 minutes at 37° C. 10 uL of a 5× stock of test compounds with diethylenetriamine NONOate (DETA-NO) was added. Final concentration of DETA-NO was 30 μM. Cells were incubated for 20 min at 37° C. Medium was removed, 50 uL of ice-cold 10% acetic acid was added, and incubated for 60 minutes at 4° C. Following centrifugation at 4° C. for 5 minutes at 1000×g to pellet cell debris, the supernatant was aspirated to a clean plate and the samples were analyzed for cGMP content. cGMP concentrations were determined from each sample using LC-MS/MS.
# Data were normalized to a high control using the following equation: 100*(Sample−Low Control)/(High Control−Low Control), where the low control is the average of 15 samples treated with 1% DMSO, and the high control is the average of 15 samples treated with 10 μM a known sGC stimulator Compound Y. Data were fit using a 4-parameter fit (log(agonist) vs. response—variable slope) using GraphPad Prism Software v.5. n=2 for all compounds. The Absolute EC50 was interpolated from the curve fit and is defined as the concentration at which a given compound elicits 50% of the high control response. Compounds failing to elicit a minimum response of 50% are reported as >30 μM. For compounds run in duplicate or n higher than 2, the result herein given is the geometric mean of the several results obtained.
# [3] = 10 mg/kg PO, 1 h, unbound CSF/unbound plasma, read-out: Kp,uu (@ 1 h)
# [4] = CSF, 10 mg/kg PO, 1 h, read-out: CSF Conc. (nM @ 1 h)
Structure (SMILES),"Kp uu at 1 h [1, 3]","concentration at 1 h [1, 4] [nM]",EC50 [2] [nM],"Kp uu at 1 h ([1]; CSF / unbound plasma, 1 mg/kg PO, @ 1 h, read-out: Kp,uu)","Kp uu at 2 h ([1]; CSF / unbound plasma, 1 mg/kg PO, @ 2 h)","Kp uu at 4 h ([1]; CSF / unbound plasma, 1 mg/kg PO, @ 4 h)","concentration at 1 h ([1]; CSF, 1 mg/kg PO, @ 1 h, read-out: CSF Conc.) [nM]","concentration at 2 h ([1]; CSF, 1 mg/kg PO, @ 2 h, read-out: CSF Conc.) [nM]","concentration at 4 h ([1]; CSF, 1 mg/kg PO, @ 4 h, read-out: CSF Conc.) [nM]"
"Fc1ccccc1Cc1nc(-c2nc(C(F)(F)F)n[nH]2)cn2ncnc12 [Compound I-16, 8-(2-Fluorobenzyl)-6-(3-(trifluoromethyl)-1H-1,2,4-triazol-5-yl)-[1,2,4]triazolo[1,5-a]pyrazine]",1.6,272,≤ 100,–,–,–,–,–,–
"Fc1cccc(Cc2nc(-c3nc(C(F)(F)F)n[nH]3)cn3ccnc23)c1 [Compound I-2, 8-(3-Fluorobenzyl)-6-(3-(trifluoromethyl)-1H-1,2,4-triazol-5-yl)imidazo[1,2-a]pyrazine]",0.9,59,≤ 100,–,–,–,–,–,–
"Fc1cccc(Cc2nc(-c3nc(C(F)F)n[nH]3)cn3ccnc23)c1 [Compound I-3, 6-(3-(Difluoromethyl)-1H-1,2,4-triazol-5-yl)-8-(3-fluorobenzyl)imidazo[1,2-a]pyrazine]",0.8,6,≤ 100,–,–,–,–,–,–
"Fc1ccccc1Cc1nc(-c2nc(C(F)(F)F)n[nH]2)cn2ccnc12 [Compound I-1, 8-(2-fluorobenzyl)-6-(3-(trifluoromethyl)-1H-1,2,4-triazol-5-yl)imidazo[1,2-a]pyrazine]",0.9,210,≤ 100,1,1.4,1.9,21,35,39
"Fc1ccccc1Cc1nc(-c2nc(C(F)F)n[nH]2)cn2ccnc12 [Compound I-14, 8-(2-Fluorobenzyl)-6-(3-(difluoromethyl)-1H-1,2,4-triazol-5-yl)imidazo[1,2-a]pyrazine]",1.7,284,≤ 100,–,–,–,–,–,–
"Fc1cccc(Cc2nc(-c3nc(C(F)(F)F)n[nH]3)cn3ccnc23)c1F [Compound I-10, 8-(2,3-Difluorobenzyl)-6-(3-(trifluoromethyl)-1H-1,2,4-triazol-5-yl)imidazo[1,2-a]pyrazine]",3.1,108,≤ 100,–,–,–,–,–,–
"Fc1cccc(Cc2nc(-c3nc(C(F)F)n[nH]3)cn3ccnc23)c1F [Compound I-11, 8-(2,3-Difluorobenzyl)-6-(3-(difluoromethyl)-1H-1,2,4-triazol-5-yl)imidazo[1,2-a]pyrazine]",2.1,72,≤ 100,–,–,–,–,–,–
